# Target: WD repeat-containing protein 5 (Homo sapiens, UniProt P61964)
# Test: Binding affinity to his sumo tagged N-terminal WDR5 (23 to […] residues) (unknown origin) incubated for 3 hrs by HTRF binding assay
row,Structure (SMILES),IC50 [µM]
1,CC(C)C[C@H](NC(=O)[C@H](Cc1ccccc1)NC(=O)[C@@H](N)CS)C(=O)N[C@@H](CC(N)=O)C(=O)N[C@H](C(=O)N[C@@H](CO)C(=O)N[C@@H](CC(N)=O)C(=O)N[C@@H](C)C(=O)N[C@@H](CS)C(=O)O)C(C)C,> 100
2,CC(C)[C@H](NC(=O)[C@H](CC(=O)O)NC(=O)[C@H](C)NC(=O)[C@H](CCC(=O)O)NC(=O)CNC(=O)[C@H](CCC(=O)O)NC(=O)CNC(=O)[C@@H](N)CS)C(=O)N[C@@H](CS)C(=O)O,> 100
3,NCCCC[C@H](NC(=O)[C@H](Cc1c[nH]c2ccccc12)NC(=O)[C@H](CCC(N)=O)NC(=O)[C@H](CC(N)=O)NC(=O)[C@@H]1CCCN1C(=O)[C@@H](N)CS)C(=O)N[C@@H](CO)C(=O)N[C@@H](Cc1ccc(O)cc1)C(=O)N[C@@H](CS)C(=O)O,> 100

# Source: ChEMBL document CHEMBL5329190, “Screening and optimization of phage display cyclic peptides against the WDR5 WBM site” (RSC Med Chem, 2023)
